Test results taken from patent publication US12084459B2, “2-(4-{1-[6-(4-isopropyl-phenyl)-imidazo[2,1-b][1,3,4]thiadiazol-2-yl]-piperidin-4-ylmethyl}-piperazin-1-yl)-ethanol and use thereof” (Urifer Ltd., priority 2020, dated 2024).

Test: toxicity in mice: body weight and observations after IP administration
Type: in vivo
Details: for body weight / body weight change (% wt/wt): male mice
Method in brief: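 Mice (female where stated) received the test compound intraperitoneally on day 1, dissolved in 20% hydroxypropylcyclodextrane at an administration volume of 10 ml/kg. Toxicity was assessed from body weight, body weight change (% wt/wt) and observations of the animals after administration.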

CC(C)c1ccc(-c2cn3nc(N4CCC(CN5CCN(CCO)CC5)CC4)sc3n2)cc1 [Compound E266, 2-(4-{1-[6-(4-isopropyl-phenyl)-imidazo[2,1-b][1,3,4]thiadiazol-2-yl]-piperidin-4-ylmethyl}-piperazin-1-yl)-ethanol]
body weight (100 mg/kg IP, day 1): 37.4 g
body weight change (% wt/wt) (100 mg/kg IP, day 1): 0%
body weight (100 mg/kg IP, day 2): 38.2 g
body weight change (% wt/wt) (100 mg/kg IP, day 2): 2.1%
body weight (100 mg/kg IP, day 3): 38 g
body weight change (% wt/wt) (100 mg/kg IP, day 3): 1.6%
body weight (100 mg/kg IP, day 4): 37.3 g
body weight change (% wt/wt) (100 mg/kg IP, day 4): −0.3%
body weight (100 mg/kg IP, day 5): 37.9 g
body weight change (% wt/wt) (100 mg/kg IP, day 5): 1.3%
body weight (100 mg/kg IP, day 6): 37.5 g
body weight change (% wt/wt) (100 mg/kg IP, day 6): 0.3%
body weight (100 mg/kg IP, day 7): 37.4 g
body weight change (% wt/wt) (100 mg/kg IP, day 7): 0.0%
body weight (100 mg/kg IP, day 8): 37.5 g
body weight change (% wt/wt) (100 mg/kg IP, day 8): 0.3%
body weight (100 mg/kg IP, day 9): 36.8 g
body weight change (% wt/wt) (100 mg/kg IP, day 9): −1.6%
body weight (100 mg/kg IP, day 10): 37.2 g
body weight change (% wt/wt) (100 mg/kg IP, day 10): −0.5%
body weight (100 mg/kg IP, day 11): 37.3 g
body weight change (% wt/wt) (100 mg/kg IP, day 11): −0.3%
body weight (100 mg/kg IP, day 12): 37.3 g
body weight change (% wt/wt) (100 mg/kg IP, day 12): −0.3%
body weight (100 mg/kg IP, day 13): 37.7 g
body weight change (% wt/wt) (100 mg/kg IP, day 13): 0.8%
body weight (100 mg/kg IP, day 14): 38.1 g
body weight change (% wt/wt) (100 mg/kg IP, day 14): 1.9%
body weight (100 mg/kg IP, day 15): 36.6 g
body weight change (% wt/wt) (100 mg/kg IP, day 15): −2.1%
body weight (200 mg/kg IP, day 1): 37.8 g
body weight change (% wt/wt) (200 mg/kg IP, day 1): 0%
body weight (200 mg/kg IP, day 2): 38.1 g
body weight change (% wt/wt) (200 mg/kg IP, day 2): 0.8%
body weight (200 mg/kg IP, day 3): 38.2 g
body weight change (% wt/wt) (200 mg/kg IP, day 3): 1.1%
body weight (200 mg/kg IP, day 4): 38.3 g
body weight change (% wt/wt) (200 mg/kg IP, day 4): 1.3%
body weight (200 mg/kg IP, day 5): 37.6 g
body weight change (% wt/wt) (200 mg/kg IP, day 5): −0.5%
body weight (200 mg/kg IP, day 6): 38 g
body weight change (% wt/wt) (200 mg/kg IP, day 6): 0.5%
body weight (200 mg/kg IP, day 7): 39.2 g
body weight change (% wt/wt) (200 mg/kg IP, day 7): 3.7%
body weight (200 mg/kg IP, day 8): 39.7 g
body weight change (% wt/wt) (200 mg/kg IP, day 8): 5.0%
body weight (200 mg/kg IP, day 9): 38 g
body weight change (% wt/wt) (200 mg/kg IP, day 9): 0.5%
body weight (200 mg/kg IP, day 10): 37.9 g
body weight change (% wt/wt) (200 mg/kg IP, day 10): 0.3%
body weight (200 mg/kg IP, day 11): 38.2 g
body weight change (% wt/wt) (200 mg/kg IP, day 11): 1.1%
body weight (200 mg/kg IP, day 12): 38.7 g
body weight change (% wt/wt) (200 mg/kg IP, day 12): 2.4%
body weight (200 mg/kg IP, day 13): 37.9 g
body weight change (% wt/wt) (200 mg/kg IP, day 13): 0.3%
body weight (200 mg/kg IP, day 14): 38.8 g
body weight change (% wt/wt) (200 mg/kg IP, day 14): 2.6%
body weight (200 mg/kg IP, day 15): 37.6 g
body weight change (% wt/wt) (200 mg/kg IP, day 15): −0.5%
body weight (400 mg/kg IP, day 1): 40.3 g
body weight change (% wt/wt) (400 mg/kg IP, day 1): 0%
body weight (400 mg/kg IP, day 2): 40 g
body weight change (% wt/wt) (400 mg/kg IP, day 2): −.07%
body weight (400 mg/kg IP, day 3): 41.3 g
body weight change (% wt/wt) (400 mg/kg IP, day 3): 2.5%
body weight (400 mg/kg IP, day 4): 40.8 g
body weight change (% wt/wt) (400 mg/kg IP, day 4): 1.2%
body weight (400 mg/kg IP, day 5): 39.6 g
body weight change (% wt/wt) (400 mg/kg IP, day 5): −1.7%
body weight (400 mg/kg IP, day 6): 40.4 g
body weight change (% wt/wt) (400 mg/kg IP, day 6): 0.2%
body weight (400 mg/kg IP, day 7): 40.5 g
body weight change (% wt/wt) (400 mg/kg IP, day 7): 0.5%
body weight (400 mg/kg IP, day 8): 40.7 g
body weight change (% wt/wt) (400 mg/kg IP, day 8): 1.0%
body weight (400 mg/kg IP, day 9): 39.4 g
body weight change (% wt/wt) (400 mg/kg IP, day 9): −2.2%
body weight (400 mg/kg IP, day 10): 40 g
body weight change (% wt/wt) (400 mg/kg IP, day 10): −0.7%
body weight (400 mg/kg IP, day 11): 39.7 g
body weight change (% wt/wt) (400 mg/kg IP, day 11): −1.5%
body weight (400 mg/kg IP, day 12): 40.1 g
body weight change (% wt/wt) (400 mg/kg IP, day 12): −0.5%
body weight (400 mg/kg IP, day 13): 40.1 g
body weight change (% wt/wt) (400 mg/kg IP, day 13): −0.5%
body weight (400 mg/kg IP, day 14): 40.2 g
body weight change (% wt/wt) (400 mg/kg IP, day 14): −0.2%
body weight (400 mg/kg IP, day 15): 39.3 g
body weight change (% wt/wt) (400 mg/kg IP, day 15): −2.5%
observations after administration (mice, IP administration): a decrease in locomotor and piloererection right after administration were observed, these were reversible and full recovery was observed
